Test results from US9776979B2, “EBI2 modulators” (Sanford-Burnham Medical Research Institute, priority 2013, dated 2017).
Where two headings read alike, the source gives them in different places.

Target: EBI2 (Homo sapiens, UniProt P32249)
Experiment: Cell-based luminescent assay (EBI2 modulation)
Outline: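 Cells plated overnight at 37° C, then exposed to compound at 4-5 uM final with 80 nM 7a,25-OHC agonist for 60 min at 37° C. Luminescence read after 60 min detection at 25° C in the dark; values normalized to neutral and stimulator controls and plate-pattern corrected.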

[1] = cell-based luminescence, 7a,25-OHC final assay concentration 80 nM, 60 minutes incubation, read-out: IC50

Sequence of EBI2 (P32249 whole entry): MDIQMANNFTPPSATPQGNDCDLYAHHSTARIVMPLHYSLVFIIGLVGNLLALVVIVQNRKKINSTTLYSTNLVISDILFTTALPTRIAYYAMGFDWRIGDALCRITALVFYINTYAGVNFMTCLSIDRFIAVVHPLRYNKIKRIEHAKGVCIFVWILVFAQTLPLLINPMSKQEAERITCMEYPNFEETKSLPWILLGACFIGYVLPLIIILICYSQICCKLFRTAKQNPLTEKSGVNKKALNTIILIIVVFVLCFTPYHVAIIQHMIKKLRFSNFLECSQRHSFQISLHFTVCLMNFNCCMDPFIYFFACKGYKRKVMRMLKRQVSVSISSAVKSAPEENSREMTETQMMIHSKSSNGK

## O=C(/C=C/c1ccc(C(F)(F)F)cc1)N1CCN(C(=O)c2cc3cc(Cl)ccc3[nH]2)CC1 [Compound C218, (2E)-1-{4-[(5-chloroindol-2-yl)carbonyl]piperazinyl}-3-[4-(trifluoromethyl)phenyl]prop-2-en-1-one]
[1]
  IC50: < 100 nM

## Cc1ccc2[nH]c(C(=O)N3CCN(Cc4ccc(F)cc4)CC3)cc2c1 [Compound C219, 4-[(4-fluorophenyl)methyl]piperazinyl 5-methylindol-2-yl ketone]
[1]
  IC50: < 100 nM

## COc1ccc(-c2ccc3[nH]c(C(=O)N4CCN(C(c5ccccc5)c5ccccc5)CC4)cc3c2)cc1 [Compound C220, 4-(diphenylmethyl)piperazinyl 5-(4-methoxyphenyl)indol-2-yl ketone]
[1]
  IC50: < 100 nM

## O=C(/C=C/c1ccc(F)cc1)N1CCN(S(=O)(=O)c2ccc3ccccc3c2)CC1 [Compound C221, (2E)-3-(4-fluorophenyl)-1-[4-(2-naphthylsulfonyl)piperazinyl]prop-2-en-1-one]
[1]
  IC50: < 100 nM

## CCN1CCN(C(=O)/C=C/c2ccc(Br)cc2)CC1 [Compound C222, (2E)-3-(4-bromophenyl)-1-(4-ethylpiperazinyl)prop-2-en-1-one]
[1]
  IC50: < 100 nM

## Nc1ccc2cc(C(=O)N3CCN(C(c4ccccc4)c4ccccc4)CC3)ccc2c1 [Compound C223, 6-amino(2-naphthyl) 4-(diphenylmethyl)piperazinyl ketone]
[1]
  IC50: < 100 nM

## Cc1ccc(C#CC(=O)N2CCN(C(=O)c3ccc(F)cc3C(F)(F)F)CC2)cc1 [Compound C224, 1-(4-{[4-fluoro-2-(trifluoromethyl)phenyl]carbonyl}piperazinyl)-3-(4-methylphenyl)prop-2-yn-1-one]
[1]
  IC50: < 100 nM

## O=C(/C=C/c1ccc(F)cc1)N1CCN(S(=O)(=O)c2cc(Cl)ccc2Cl)CC1 [Compound C225, (2E)-1-{4-[(2,5-dichlorophenyl)sulfonyl]piperazinyl}-3-(4-fluorophenyl)prop-2-en-1-one]
[1]
  IC50: < 100 nM

## O=C(c1cc2cc(Cl)ccc2[nH]1)N1CCC(Nc2ccc(F)cc2)CC1 [Compound C226, 5-chloroindol-2-yl 4-[(4-fluorophenyl)amino]piperidyl ketone]
  IC50: < 100 nM

## Cc1cc2[nH]c(C(=O)N3CCN(C(c4ccccc4)c4ccccc4)CC3)cc2s1 [Compound C228, 4-(diphenylmethyl)piperazinyl 2-methylthiopheno[2,3-d]pyrrol-5-yl ketone]
[1]
  IC50: < 100 nM

## O=C(c1ccccc1)C1CCN(C(=O)c2cc3cc(Cl)ccc3[nH]2)CC1 [Compound C229, 5-chloroindol-2-yl 4-(phenylcarbonyl)piperidyl ketone]
[1]
  IC50: < 100 nM

## O=C(/C=C/c1ccc(Cl)c(Cl)c1)N1CCN(S(=O)(=O)c2ccccc2)CC1 [Compound C230, (2E)-3-(3,4-dichlorophenyl)-1-[4-(phenylsulfonyl)piperazinyl]prop-2-en-1-one]
[1]
  IC50: < 100 nM

## O=C(C#Cc1ccc(C(F)(F)F)cc1)N1CCN(Cc2ccc(F)cc2)CC1 [Compound C231, 1-{4-[(4-fluorophenyl)methyl]piperazinyl}-3-[4-(trifluoromethyl)phenyl]prop-2-yn-1-one]
[1]
  IC50: < 100 nM

## CCN(CC)c1ccc(C(=O)N2CCN(C(=O)c3cc4cc(Cl)ccc4[nH]3)CC2)cc1 [Compound C232, 4-{[4-(diethylamino)phenyl]carbonyl}piperazinyl 5-chloroindol-2-yl ketone]
[1]
  IC50: < 100 nM

## CN(C)c1ccc(/C=C/C(=O)N2CCN(C(c3ccccc3)c3ccccc3)CC2)cc1 [Compound C233, (2E)-3-[4-(dimethylamino)phenyl]-1-[4-(diphenylmethyl)piperazinyl]prop-2-en-1-one]
[1]
  IC50: < 100 nM

## O=C(C=Cc1ccc2c(c1)OCO2)N1CCN(C(=O)c2ccc(Br)cc2)CC1 [Compound C234, 3-(2H-benzo[3,4-d]1,3-dioxolan-5-yl)-1-{4-[(4-bromophenyl)carbonyl]piperazinyl}prop-2-en-1-one]
[1]
  IC50: < 100 nM

## O=C(/C=C/c1ccc(F)cc1)N1CCN(S(=O)(=O)c2ccc(F)cc2)CC1 [Compound C235, (2E)-3-(4-fluorophenyl)-1-{4-[(4-fluorophenyl)sulfonyl]piperazinyl}prop-2-en-1-one]
[1]
  IC50: < 100 nM

## COc1ccc(CN2CCN(C(=O)C#Cc3ccc(C)cc3)CC2)cc1 [Compound C236, 1-{4-[(4-methoxyphenyl)methyl]piperazinyl}-3-(4-methylphenyl)prop-2-yn-1-one]
[1]
  IC50: < 100 nM

## O=C(/C=C/c1ccc(F)cc1)N1CCN(S(=O)(=O)c2ccccc2F)CC1 [Compound C237, (2E)-3-(4-fluorophenyl)-1-{4-[(2-fluorophenyl)sulfonyl]piperazinyl}prop-2-en-1-one]
[1]
  IC50: < 100 nM

## O=C(C=Cc1ccc2c(c1)OCO2)N1CCN(C(=O)c2ccc(Cl)cc2)CC1 [Compound C238, 3-(2H-benzo[3,4-d]1,3-dioxolen-5-yl)-1-{4-[(4-chlorophenyl)carbonyl]piperazinyl}prop-2-en-1-one]
[1]
  IC50: < 100 nM

## O=C(/C=C/c1ccccc1)N1CCN(Cc2cccc(F)c2)CC1 [Compound C240, (2E)-1-{4-[(3-fluorophenyl)methyl]piperazinyl}-3-phenylprop-2-en-1-one]
  IC50: < 100 nM

## Cc1ccccc1/C=C/C(=O)N1CCN(C(c2ccccc2)c2ccccc2)CC1 [Compound C241, (2E)-1-[4-(diphenylmethyl)piperazinyl]-3-(2-methylphenyl)prop-2-en-1-one]
[1]
  IC50: < 100 nM

## Cn1c(C(=O)N2CCN(C(c3ccccc3)c3ccccc3)CC2)cc2ccccc21 [Compound C242, 4-(diphenylmethyl)piperazinyl 1-methylindol-2-yl ketone]
[1]
  IC50: < 100 nM

## O=C(c1ccccc1)N1CCN(C(=O)c2cc3cc(Cl)ccc3[nH]2)CC1 [Compound C243, 5-chloroindol-2-yl 4-(phenylcarbonyl)piperazinyl ketone]
[1]
  IC50: < 100 nM

## Cc1ccc2[nH]c(C(=O)N3CCN(Cc4ccc(C(C)(C)C)cc4)CC3)cc2c1 [Compound C244, 4-{[4-(tert-butyl)phenyl]methyl}piperazinyl 5-methylindol-2-yl ketone]
[1]
  IC50: < 100 nM

## Cc1ccc(C#CC(=O)N2CCN(Cc3ccc(Cl)cc3)CC2)cc1 [Compound C245, 1-{4-[(4-chlorophenyl)methyl]piperazinyl}-3-(4-methylphenyl)prop-2-yn-1-one]
[1]
  IC50: < 100 nM

## O=C(c1cc2cc(C(F)(F)F)ccc2[nH]1)N1CCN(C(=O)c2ccc(Cl)cc2Cl)CC1 [Compound C246, 4-[(2,4-dichlorophenyl)carbonyl]piperazinyl 5-(trifluoromethyl)indol-2-yl ketone]
[1]
  IC50: < 100 nM

## O=C(c1ccc2sccc2c1)N1CCN(C(c2ccccc2)c2ccccc2)CC1 [Compound C247, benzo[b]thiophen-5-yl 4-(diphenylmethyl)piperazinyl ketone]
[1]
  IC50: < 100 nM

## O=C(/C=C/c1ccccc1)N1CCN(Cc2ccc(F)cc2)CC1 [Compound C248, (2E)-1-{4-[(4-fluorophenyl)methyl]piperazinyl}-3-phenylprop-2-en-1-one]
[1]
  IC50: < 100 nM

## O=C(C#Cc1ccc(Cl)c(Cl)c1)N1CCN(C(=O)c2ccc(C(F)(F)F)cc2)CC1 [Compound C249, 3-(3,4-dichlorophenyl)-1-(4-{[4-(trifluoromethyl)phenyl]carbonyl}piperazinyl)prop-2-yn-1-one]
[1]
  IC50: < 100 nM

## O=C(c1cc2cc(C(F)(F)F)ccc2[nH]1)N1CCN(Cc2cc(F)cc(F)c2)CC1 [Compound C251, 4-[(3,5-difluorophenyl)methyl]piperazinyl 5-(trifluoromethyl)indol-2-yl ketone]
[1]
  IC50: < 100 nM

## O=C(c1cc2cc(Cl)ccc2[nH]1)N1CCC(Nc2cccc(F)c2)CC1 [Compound C252, 5-chloroindol-2-yl 4-[(3-fluorophenyl)amino]piperidyl ketone]
  IC50: < 100 nM

## O=C(C#Cc1ccc(F)cc1)N1CCN(C(=O)c2ccc(C(F)(F)F)cc2)CC1 [Compound C253, 3-(4-fluorophenyl)-1-(4-{[4-(trifluoromethyl)phenyl]carbonyl}piperazinyl)prop-2-yn-1-one]
[1]
  IC50: < 100 nM

## O=C(c1ccc(Cl)cc1)N1CCN(C(=O)c2cc3ccc(Cl)cc3[nH]2)CC1 [Compound C255, 6-chloroindol-2-yl 4-[(4-chlorophenyl)carbonyl]piperazinyl ketone]
[1]
  IC50: < 100 nM

## COc1ccc(C(=O)N2CCN(C(=O)C=Cc3ccc4c(c3)OCO4)CC2)cc1 [Compound C256, 3-(2H-benzo[3,4-d]1,3-dioxolen-5-yl)-1-{4-[(4-methoxyphenyl)carbonyl]piperazinyl}prop-2-en-1-one]
[1]
  IC50: < 100 nM

## O=C(c1cnc2ccc(Cl)cc2c1)N1CCN(C(c2ccccc2)c2ccccc2)CC1 [Compound C257, 4-(diphenylmethyl)piperazinyl 6-chloro(3-quinolyl) ketone]
[1]
  IC50: < 100 nM

## O=C(c1cc2cc(Cl)ccc2[nH]1)N1CCC(Nc2ccc(F)cc2F)CC1 [Compound C258, 4-[(2,4-difluorophenyl)amino]piperidyl 5-chloroindol-2-yl ketone]
  IC50: < 100 nM

## CCCc1ccc(S(=O)(=O)N2CCN(C(=O)/C=C/c3ccc(F)cc3)CC2)cc1 [Compound C259, (2E)-3-(4-fluorophenyl)-1-{4-[(4-propylphenyl)sulfonyl]piperazinyl}prop-2-en-1-one]
[1]
  IC50: < 100 nM

## Cc1ccc(CN2CCN(C(=O)/C=C/c3ccccc3)CC2)cc1 [Compound C260]
  IC50: < 100 nM

## CC(C)c1ccc(S(=O)(=O)N2CCN(C(=O)/C=C/c3ccc(F)cc3)CC2)cc1 [Compound C261, (2E)-3-(4-fluorophenyl)-1-(4-{[4-(methylethyl)phenyl]sulfonyl}piperazinyl)prop-2-en-1-one]
[1]
  IC50: < 100 nM

## O=C(C#Cc1cccc(Cl)c1Cl)N1CCN(Cc2ccc(F)cc2)CC1 [Compound C262, 3-(2,3-dichlorophenyl)-1-{4-[(4-fluorophenyl)methyl]piperazinyl}prop-2-yn-1-one]
[1]
  IC50: < 100 nM

## O=C(c1cc2c(F)cc(F)cc2[nH]1)N1CCN(C(c2ccccc2)c2ccccc2)CC1 [Compound C263, 4,6-difluoroindol-2-yl 4-(diphenylmethyl)piperazinyl ketone]
[1]
  IC50: < 100 nM
